{
  "source": "patent US20230022796A1",
  "about": "(Merck Patent GmbH, priority 2019, published 2023)",
  "key": {"[1]": {"test_system": "CHO cell line producing mAb3", "assay": "Glycosylation profile (UPLC-MS of released glycans) of mAb3 from fed-batch", "type": "cell-based, Chinese hamster", "conditions": "mAb3, 400 μM additive", "description": "(§1) Glycosylation patterns were analyzed by ultra-performance liquid chromatography coupled to a mass spectrometer (UPLC-MS). The purified antibody was denaturated and the glycans were released from the antibody by digestion with peptide N-glycosidase F (PNGase F) followed by labeling the glycans with the GlycoWorks™ RapiFluor-MS™ N-Glycan Kit according to the manufacturer protocol. For the analysis, an UPLC glycan column (2.1×150 mm) that separated the glycans according to their […] was used. The chromatography was performed at 45° C. using 50 mM ammonium formate (A), pH 4.4 solution and an acetonitrile (B) gradient. In detail, at the beginning the ratio of A:B was 20:80 (0 min) and changed to 27:73 at 3 min and 37:63 at 35 min at a flow rate of 0.5 ml/min. From 36.5 min to 39.5 min only A was used as mobile phase and the flow rate was reduced to 0.2 ml/min. Subsequently, the ratio was changed to 20% A:80% B and the flowrate was increased to 0.5 ml/min at 43.1 min until the end of the process at 55 min. The detection was performed by a fluorescence detector with an excitation wavelength of 265 nm and an emission wavelength of 425 nm. The identification of the glycan structures was performed by MS using positive electro spray ionization (ESI), which was calibrated every 30 s with a standard.\n(§2) Four different clones of Chinese hamster ovary (CHO) cells expressing three different monoclonal antibodies (mAb) and a fusion protein were tested. Cells were cultivated in spin tubes between 14 and 20 days at 37° C., 5% CO2, and 80% humidity. As starting cell density, 3×10^5 cells/mL in 30 mL Cellvento®4CHO media (pH 7.0±0.1) was used for clone 1 and 2 producing mAb1 and mAb2, respectively (Cellvento® Platform). Cells were cultivated at an agitation of 320 rpm and were fed on day 3, 5, 10, 12 and 14 with 3% volume of Cellvento® 4Feed (v/v) and on day 7 with 6% (v/v) of the feed. Clone 3 and 4 producing mAb3 and a fusion protein were inoculated at the same cell density in 30 mL Ex-Cell® Advanced Media (pH 7.2±0.1) while agitation was set to 230 rpm (Ex-Cell® Platform). Clones 3 and 4 were fed with […] Advanced Feed (v/v) on day 3, 5, 7, 10, 12, 14 and 17. […] The pH of all Cellvento® feeds was adjusted to 7.0±0.1 and Ex-Cell® Feeds were adjusted to 8.5±0.1. The glucose level was maintained above 4 g/L by adding a specific amount of a 400 g/L glucose stock solution on demand to up to 6 g/L during the week and up to 13 g/L over the weekend. Glucose and titer were detected in the supernatant with the bioprocess analyzer CEDEX Bio HT (Roche, Mannheim, Germany).\n(§3) To investigate the glycosylation profile during the fed-batch experiment samples were centrifugated and antibodies and Fc-fusion proteins were purified from the cell culture supernatant using protein A PhyTips® (PhyNexus Inc, San Jose, Calif.). Glycosylation patterns were analyzed as described by ultra-performance liquid chromatography coupled to a mass spectrometer (UPLC-MS) using the GlycoWorks™ RapiFluor-MS™ N-Glycan Kit.\n(§4) Glycosylation profile on day 12 was visualized since harvest of recombinant produced proteins on day 12 is common. Quantification of the glycans was obtained using the relative peak area of the fluorescence signal. Almost all peaks were assigned to glycan structures according to their mass. Unknown glycan structures and signals without mass detection were summarized as unknown species (not shown). Four different clones of Chinese hamster ovary (CHO) cells expressing three different monoclonal antibodies (mAb) and a fusion protein were tested. […] The known positive control achieved a […] level on day 12 by increasing the afucosylation to 78%. The same amount of afucosylation compared to the known fucose-analogue acetylated 2F-Fucose was only achieved by clone 3 expressing mAb3 leading to about […] on day 12 (FIG. 8 C). […]"}, "FcγRIIIa V176": {"test_system": "FcγRIIIa V176", "assay": "Surface plasmon resonance (Biacore) binding of mAb3 from treated cultures to FcγRIIIa", "conditions": "for Fold change (affinity vs control): mAb3, 400 μM additive; for Kd: mAb3 from culture fed with 400 μM additive", "description": "Binding of samples after 5-ThioFuc treatment was investigated by surface plasmon resonance technology using a Biacore T200 system (GE Healthcare, Uppsala, Sweden). The analysis temperature was set to 25° C. and sample compartment temperature to 15° C. […] The anti-His antibody was further used to capture His-tagged FcγRIIIa V176 ([…]) from AcroBiosystems (Newark, Del., USA).\nBinding was recorded continuously, while unspecific binding and injection artefacts were subtracted automatically. Single-cycle kinetics were used with a dissociation time of 600 s at a flow rate of 30 μL/min. Data collection rate was performed at 10 Hz. Following each experiment, both flow cells were regenerated for 30 s with 10 mM glycine-HCl pH 1.5 according to kit instructions. Data of three technical and two biological replicates were fitted with a 1:1 binding model. The global dissociation constant KD was determined from the ratio of the kinetic rate constants for dissociation (kd) and association (ka) values. Data are presented in Table 1 as fold change compared to the control."}, "[2]": {"test_system": "CHO cell line producing mAb2", "assay": "Glycosylation profile (UPLC-MS of released glycans) of mAb2 from fed-batch", "type": "cell-based, Chinese hamster", "conditions": "mAb2, 400 μM additive, day 12", "description": "as §1, §2, §3\nGlycosylation profile on day 12 was visualized since harvest of recombinant produced proteins on day 12 is common. Quantification of the glycans was obtained using the relative peak area of the fluorescence signal. Almost all peaks were assigned to glycan structures according to their mass. Unknown glycan structures and signals without mass detection were summarized as unknown species (not shown). […]"}, "[3]": {"test_system": "CHO cell line producing mAb1", "assay": "Glycosylation profile (UPLC-MS of released glycans) of mAb1 from fed-batch", "type": "cell-based, Chinese hamster", "conditions": "for reduction of the fucosylation compared to the control: mAb1, same concentration of both additives; for fucosylation level / incorporation of the fucose-analogue: mean of day 7, 10 and 12", "description": "as §1, §2, §3, §4"}, "[4]": {"test_system": "CHO cell line producing a fusion protein", "assay": "Glycosylation profile (UPLC-MS of released glycans) of fusion protein from fed-batch", "type": "cell-based, Chinese hamster", "conditions": "400 μM additive, day 12", "description": "as §1, §2, §3\nGlycosylation profile on day 12 was visualized since harvest of recombinant produced proteins on day 12 is common. Quantification of the glycans was obtained using the relative peak area of the fluorescence signal. Almost all peaks were assigned to glycan structures according to their mass. Unknown glycan structures and signals without mass detection were summarized as unknown species (not shown). Four different clones of Chinese hamster ovary (CHO) cells expressing three different monoclonal antibodies (mAb) and a fusion protein were tested. […] The known positive control achieved a 14% fucosylation level on day 12 by increasing the afucosylation to 78%. The same amount of afucosylation compared to the known fucose-analogue acetylated 2F-Fucose was only achieved by clone 3 expressing mAb3 leading to about 34% afucosylation on day 12 (FIG. 8 C)."}, "[5]": {"test_system": "CHO cell line producing mAb3", "assay": "Fed-batch cell performance (viable cell density), clone 3 producing mAb3", "type": "cell-based, Chinese hamster", "conditions": "mAb3, feed with 400 μM additive", "description": "Four different clones of Chinese hamster ovary (CHO) cells expressing three different monoclonal antibodies (mAb) and a fusion protein were tested. Cells were cultivated in spin tubes between 14 and 20 days at 37° C., 5% CO2, and 80% humidity. As starting cell density, 3×10^5 cells/mL in 30 mL Cellvento®4CHO media (pH 7.0±0.1) was used for clone 1 and 2 producing mAb1 and mAb2, respectively (Cellvento® Platform). Cells were cultivated at an agitation rate of 320 rpm and were fed on day 3, 5, 10, 12 and 14 with 3% volume of Cellvento® 4Feed (v/v) and on day 7 with 6% (v/v) of the feed. Clone 3 and 4 producing mAb3 and a fusion protein were inoculated at the same cell density in 30 mL Ex-Cell® Advanced Media (pH 7.2±0.1) while agitation was set to 230 rpm. Clones 3 and 4 were fed with 5% Ex-Cell® Advanced Feed (v/v) on day 3, 5, 7, 10, 12, 14 and 17. […]\nThe glucose level was maintained above 4 g/L by adding a specific amount of a 400 g/L glucose stock solution on demand to up to 6 g/L during the week and up to 13 g/L over the weekend. Glucose and titer were detected in the supernatant with the bioprocess analyzer CEDEX Bio HT (Roche, Mannheim, Germany) based on spectrophotometric and turbidometric methods. The viable cell density (VCD) and viability were evaluated with a Vi-CELL™ XR 2.04 cell counter (Beckman Coulter, Fullerton, Calif., USA). […]"}, "[6]": {"conditions": "day 12, listed as acetylated 2F-Fucose"}},
  "data": [
    {"compound": "CC(=O)OC1O[C@@H](C)[C@@H](OC(C)=O)[C@@H](OC(C)=O)[C@@H]1F", "note": "(stereo partly shown) [2F-Peracetylfucose, reference compound]", "values": [
      {"measurement": "% Afucosylated", "setting": "[1]; day 5", "result": 14.9, "unit": "%"},
      {"measurement": "% fucose analogue (incorporated)", "setting": "[1]; day 5", "result": 0.3, "unit": "%"},
      {"measurement": "% Fucosylated", "setting": "[1]; day 5, listed as 2F-PerAcFuc", "result": 83.9, "unit": "%"},
      {"measurement": "% Fucosylated", "setting": "[1]; day 5, listed as acetylated 2F-Fucose", "result": "about 84%"},
      {"measurement": "fucosylation level", "setting": "[1]; day 7", "result": "about 78%"},
      {"measurement": "fucosylation level", "setting": "[1]; day 10", "result": "~72", "unit": "%"},
      {"measurement": "% fucose analogue (incorporated)", "setting": "[1]; day 12", "result": 0.2, "unit": "%"},
      {"measurement": "% Afucosylated", "setting": "[1]; day 12, listed as 2F-PerAcFuc", "result": 34.2, "unit": "%"},
      {"measurement": "% Fucosylated", "setting": "[1]; day 12, listed as 2F-PerAcFuc", "result": 64.8, "unit": "%"},
      {"measurement": "% Afucosylated", "setting": "[1]; [6]", "result": "about 34%"},
      {"measurement": "% Fucosylated", "setting": "[1]; [6]", "result": 65, "unit": "%"},
      {"measurement": "% Afucosylated", "setting": "[1]; day 14", "result": 40.9, "unit": "%"},
      {"measurement": "% fucose analogue (incorporated)", "setting": "[1]; day 14", "result": 0.12, "unit": "%"},
      {"measurement": "% Fucosylated", "setting": "[1]; day 14, listed as 2F-PerAcFuc", "result": 57.4, "unit": "%"},
      {"measurement": "% Fucosylated", "setting": "[1]; day 14, listed as acetylated 2F-Fucose", "result": "~57", "unit": "%"},
      {"measurement": "Fold change (affinity vs control)", "setting": "FcγRIIIa V176; day 5", "result": 1.3, "unit": "fold"},
      {"measurement": "Fold change (affinity vs control)", "setting": "FcγRIIIa V176; day 12", "result": 3.6, "unit": "fold"},
      {"measurement": "Fold change (affinity vs control)", "setting": "FcγRIIIa V176; day 14", "result": 4.4, "unit": "fold"},
      {"measurement": "Kd", "setting": "FcγRIIIa V176; day 5", "result": 78, "unit": "nM"},
      {"measurement": "Kd", "setting": "FcγRIIIa V176; day 12", "result": 34, "unit": "nM"},
      {"measurement": "Kd", "setting": "FcγRIIIa V176; day 14", "result": 23, "unit": "nM"},
      {"measurement": "afucosylation", "setting": "[2]", "result": 78, "unit": "%"},
      {"measurement": "core-fucosylation", "setting": "[2]", "result": 14, "unit": "%"},
      {"measurement": "afucosylation", "setting": "[3]; mAb1, 400 μM additive, day 12", "result": 60, "unit": "%"},
      {"measurement": "core-fucosylated glycans", "setting": "[3]; mAb1, 400 μM additive, day 12", "result": 36, "unit": "%"},
      {"measurement": "reduction of the fucosylation compared to the control", "setting": "[3]; day 7", "result": 11, "unit": "%"},
      {"measurement": "reduction of the fucosylation compared to the control", "setting": "[3]; day 10", "result": 50, "unit": "%"},
      {"measurement": "reduction of the fucosylation compared to the control", "setting": "[3]; day 12", "result": 58, "unit": "%"},
      {"measurement": "afucosylation", "setting": "[4]", "result": 82, "unit": "%"},
      {"measurement": "incorporation of fucose analogue (% of the glycans)", "setting": "[4]", "result": "without detectable incorporation"}
    ]},
    {"compound": "acetylated 5-Thio-L-Fucose", "values": [
      {"measurement": "core-fucosylation", "setting": "[2]", "result": 8, "unit": "%"},
      {"measurement": "reduced VCD (area under the curve until day 17, compared to the control)", "setting": "[5]", "result": "~24", "unit": "%"},
      {"measurement": "fucosylation level", "setting": "[3]; mAb1, 200 μM additive", "result": 46, "unit": "%"},
      {"measurement": "incorporation of the fucose-analogue", "setting": "[3]; mAb1, 200 μM additive", "result": 50, "unit": "%"},
      {"measurement": "core-fucosylated glycans", "setting": "[3]; mAb1, 400 μM additive, day 12", "result": "about 26%"},
      {"measurement": "incorporation of fucose analogue (% of the glycans)", "setting": "[3]; mAb1, 400 μM additive, day 12", "result": "about 70%"},
      {"measurement": "fucosylation level", "setting": "[3]; mAb1, 400 μM additive", "result": 16, "unit": "%"},
      {"measurement": "incorporation of the fucose-analogue", "setting": "[3]; mAb1, 400 μM additive", "result": 81, "unit": "%"},
      {"measurement": "fucosylation level", "setting": "[3]; mAb1, 800 μM additive", "result": 9, "unit": "%"},
      {"measurement": "incorporation of the fucose-analogue", "setting": "[3]; mAb1, 800 μM additive", "result": 87, "unit": "%"},
      {"measurement": "afucosylation", "setting": "[4]", "result": 52, "unit": "%"},
      {"measurement": "incorporation of fucose analogue (% of the glycans)", "setting": "[4]", "result": 39, "unit": "%"},
      {"measurement": "reduction of core-fucosylation compared to the control", "setting": "[4]", "result": "about 63%"}
    ]}
  ]
}
